Measurements from PMC11003925, “Antimicrobial activity and properties of de novo design of short synthetic lipopeptides” (Folia Microbiologica, 2024).
In brackets after ≈: the same amount, converted by molar mass. Read-outs that look alike come from different tables or passages of the source. Residues, ends and D or L forms follow the SMILES beside them. *: point of attachment. Lithocholoyl = C[C@H](CCC(=O)*)[C@H]1CC[C@H]2[C@@H]3CC[C@@H]4C[C@H](O)CC[C@]4(C)[C@H]3CC[C@]12C; Palmitoyl = CCCCCCCCCCCCCCCC(=O)*

What was measured:
[1] = tested on: A. baumannii DBM 3183; test: microbe, parasite or virus in culture; assay type: cell-based, Acinetobacter baumannii; conditions: for IC50: DBM 3183, 25 h
Protocol: (§1) A Bioscreen C automated microbiology growth curve analysis system (Growth Curves, Piscataway, NJ, USA) was used for the quantitative determination of antimicrobial activity (minimal inhibitory concentration, MIC) of PAL/LCA-peptides. Optical density was measured with a wide bandpass filter (wavelength range 420–580 nm) at regular intervals and temperatures. This assay was performed in a special microtiter plate (10 × 10 wells) that allowed the simultaneous testing of a large number of samples against several microorganisms. The total testing volume was 100 µL, obtained by mixing 10 µL of microbial culture with OD600 equal to 0.1 with growth medium and a solution of the tested compounds. The positive controls were vancomycin and tetracycline for Bacillus subtilis (100 µg/mL) for Gram-positive bacteria, kanamycin, and tetracycline for Acinetobacter baumannii (100 µg/mL) for Gram-negative bacteria, and clotrimazole or amphotericin (100 µg/mL) for fungi. The maximal concentration of tested lipoproteins was 1 mg/mL. A pure growth medium was used as the negative control. The measurement period was 25 h. The lowest concentration with a 100% inhibition effect for 24 h of incubation was chosen as the MIC. The antibacterial activity of each compound was expressed as the minimum inhibitory concentration MIC (MIC is the lowest concentration of the compound needed to inhibit the growth of bacterial cells) and IC50 (IC50 is the concentration of the compound needed to inhibit the growth of bacterial cells by 50%).

[2] = tested on: all the tested microorganisms; test: Microtitre dilution screening at 1 mg/mL; assay type: cell-based; conditions: c = 1 mg/mL, microtitre dilution method
Protocol: as §1

[3] = tested on: M. luteus DBM 3053; assay type: cell-based, Micrococcus luteus; conditions: for MIC: DBM 3053, 24 h; for IC50: DBM 3053, 25 h
Protocol: as §1

[4] = tested on: Staph. aureus DBM 3002; assay type: cell-based, Staphylococcus aureus; conditions: for MIC: 24 h; for IC50: 25 h
Protocol: as §1

[5] = tested on: B. subtilis DBM 3006; assay type: cell-based, Bacillus subtilis; conditions: for MIC: DBM 3006, 24 h; for IC50: DBM 3006, 25 h
Protocol: as §1

[6] = tested on: Ps. aeruginosa DBM 3081; assay type: cell-based, Pseudomonas aeruginosa; conditions: for IC50: 25 h
Protocol: as §1

[7] = tested on: plasmid pGreen 0029; test: DNA binding assay (gel retardation); conditions: for weight ratio lipopeptide:DNA influencing electrophoretic mobility: 50 ng DNA, 1 h room temperature, 1% agarose gel
Protocol: This assay was performed as described by Park et al. ([1998]), with a few modifications. […] The reaction mixture was incubated at room temperature for 1 h. Subsequently, 4 µL of native loading buffer (10% Ficol, 10 mM Tris–HCl (pH 7.5), 50 mM EDTA, 0.25% bromophenol blue) was added. An aliquot was applied to 1% agarose gel electrophoresis in 0.5xTris borate-EDTA buffer. Circular plasmid DNA was isolated from (Luria–Bertani medium with AMPI in final concentration 100 µg/mL) bacterial strain E. coli DH5α / pBluescriptII KS- that had been grown overnight, and linearization was performed overnight by enzymatic reaction using restriction endonuclease EcoRV at 37 °C. The evaluation was performed by visualizing the DNA with the intercalation dye Midori Green Advanced DNA Stain under UV light. Reduced electrophoretic mobility compared to the control is considered to be evidence of peptide binding to DNA.
According to the previous results, we decided to clarify one of the possible molecular interaction mechanisms, the ability of the studied lipopeptides to bind microbial plasmid DNA. Based on the assumption that pore formation is only one of the influencing factors, which arose from previous results, the effect on one of the possible intracellular targets, DNA, was determined. This determination was carried out on isolated plasmid DNA, specifically on two plasmids, pGreen 0029 and pBluescript II KS- in circular and linearized form.

[8] = tested on: Staph. aureus; test: Transmission electron microscopy of treated bacteria; assay type: cell-based, Staphylococcus aureus; conditions: 1 to 4 h incubation; media with (Mueller–Hinton broth 2) and without nutrients (potassium phosphate buffer)
Protocol: Pictures of damaged bacterial cells were obtained by transmission electron microscopy after 1 to 4 h of incubation. Cells of the Gram-positive bacterial strains were not stained. A JEOL JEM-1010 transmission electron microscope (JEOL, Tokyo, Japan) equipped with a MegaView III CCD camera was used for visualization, and evaluation was performed with the program for image analysis AnalySIS software v. 2.0 (Soft Imaging Systems). The samples were plated on a carbon-coated electron microscopic grid and observed with an accelerating voltage of 80 kV.

[9] = tested on: C. tropicalis DBM 2166; assay type: cell-based, Candida tropicalis; conditions: for IC50: DBM 2166, 25 h
Protocol: as §1

[10] = tested on: Staph. aureus MRSA1; assay type: cell-based, Staphylococcus aureus; conditions: for MIC: 24 h; for IC50: 25 h
Protocol: as §1

[11] = tested on: E. faecalis DBM 3075; assay type: cell-based; conditions: DBM 3075, 25 h
Protocol: as §1

[12] = tested on: E. coli DBM 3001; assay type: cell-based; conditions: for IC50: DBM 3001, 25 h
Protocol: as §1

[13] = tested on: HepG2; test: Cytotoxicity assay (xCELLigence impedance); assay type: cell-based, human; conditions: 24 h exposure
Protocol: (§2) Experiments were carried out using an xCELLigence RTCA DP Instrument (Roche Diagnostics GmbH, Mannheim, Germany) which was placed into an incubator (37 °C and 5% CO2). Cell proliferation and cytotoxicity experiments were performed using modified 16-well plates (E-plate, Roche Diagnostics GmbH, Mannheim, Germany). Microelectrodes were attached to the bottom of the wells for the impedance-based detection of attachment, spreading, and proliferation of the cells (Stoddart [2011]). This system monitors cellular events in real time without the incorporation of labels by measuring electrical impedance across an interdigitated microelectrode integrated into the bottom of this special tissue culture plate. This impedance measurement improves upon conventional endpoint assays and provides quantitative information about the biological status of the cells, including cell number, adhesion, viability, and morphology. Ninety microliters of cultivation medium was used for the blank sample, and subsequently, 100 µL of HepG2 or HEK293T cell suspension (7 × 10^5 cells/mL) was added and placed into the incubator (37 °C, 95% humidity, 5% CO2). […] Chrysophsin-3 at a concentration of 100 µg/mL was used as a positive control and solvent (deionized water) as a negative control. Subsequent incubation was performed for at least an additional 24 h. The result of the measurement was viability curves. After the measurement, percentages of tissue culture growth inhibition were calculated for all the tested substances, as follows: %inhibition=(1-(ΔϕCIsample)/(ΔϕCIcontrol))·100
(§3) Δ∅CIsample … the difference between the first and last average CI (cell index) values of the tissue culture in the presence of the tested sample.
(§4) Δ∅CIcontrol … the difference between the first and last average CI values of the tissue culture itself.

[14] = tested on: HEK293T; test: Cytotoxicity assay (xCELLigence impedance); assay type: cell-based, human; conditions: 24 h exposure
Protocol: as §2, §3, §4

[15] = first value of cell 'MIC / IC50', 100% inhibition for 24 h

| Compound | growth inhibition / activity in screening [2] | IC50 [1] | IC50 [5] | IC50 [6] | IC50 [9] | MIC [3] | IC50 [3] | IC50 [4] | MIC [10] | IC50 [10] | IC50 [11] | IC50 [12] | % inhibition ([13]; c 50 µg/mL) | % inhibition ([13]; c 100 µg/mL) | % inhibition ([14]; c 50 µg/mL) | % inhibition ([14]; c 100 µg/mL) | % inhibition ([14]; c 200 µg/mL) | also measured |
| --- | --- | --- | --- | --- | --- | --- | --- | --- | --- | --- | --- | --- | --- | --- | --- | --- | --- | --- |
| CN(C)[C@@H]1C(O)=C(C(N)=O)C(=O)[C@@]2(O)C(O)=C3C(=O)c4c(O)cccc4[C@@](C)(O)[C@H]3C[C@@H]12 [tetracycline, reference compound] | – | – | – | – | – | – | – | – | – | – | – | – | – | – | – | – | – | MIC ([1]; Acinetobacter baumannii, DBM3183, first value of cell 'MIC / IC50', lowest concentration with 100% inhibition for 24 h, 100 µL, OD 420–580 nm): 10 µg/mL (≈ 22.5 µM) |
| LVKRAG-NH2 [SHP-1.1, primary hexapeptide with C-terminal amidation] | low activity | – | – | – | – | – | – | – | – | – | – | – | – | – | – | – | – | growth inhibition ([3]; c = 1 mg/mL): One hundred percent; growth inhibition ([4]; c = 1 mg/mL, Staphylococcus aureus, strain not stated): One hundred percent |
| GVLKRA-NH2 [SHP-3.1] | low activity | – | – | – | – | – | – | – | – | – | – | – | – | – | – | – | – | growth inhibition ([5]; c = 1 mg/mL): One hundred percent |
| NC[C@H]1O[C@H](O[C@H]2[C@H](O)[C@@H](O[C@H]3O[C@H](CO)[C@@H](O)[C@H](N)[C@H]3O)[C@H](N)C[C@@H]2N)[C@H](O)[C@@H](O)[C@@H]1O [kanamycin, reference compound] | – | – | – | – | – | – | – | – | – | – | – | – | – | – | – | – | – | MIC [6, 15]: 20 µg/mL (≈ 41.3 µM) |
| LVKGAR-NH2 [SHP-2.1, primary hexapeptide with C-terminal amidation] | low activity | – | – | – | – | – | – | – | – | – | – | – | – | – | – | – | – | – |
| CC(C)C[C@H](NC(=O)[C@@H](NC(=O)CNC(=O)CC[C@@H](C)[C@H]1CC[C@H]2[C@@H]3CC[C@@H]4C[C@H](O)CC[C@]4(C)[C@H]3CC[C@]12C)C(C)C)C(=O)N[C@@H](CCCCN)C(=O)N[C@@H](CCCNC(=N)N)C(=O)N[C@@H](C)C(N)=O [SHP-3.3, LCA-GVLKRA-NH2] (Lithocholoyl-GVLKRA-NH2) | – | N / > 100.0 µg/mL | 50.0 µg/mL (≈ 50 µM) | N / > 100.0 µg/mL | 30.0 µg/mL (≈ 30 µM) | 1.5 µg/mL (≈ 1.5 µM) | 5.0 µg/mL (≈ 5 µM) | 50.0 µg/mL (≈ 50 µM) | 25.2 µg/mL (≈ 25.2 µM) | 50.0 µg/mL (≈ 50 µM) | N / > 100.0 µg/mL | N / > 100.0 µg/mL | 4.3 ± 0.6% | 35.6 ± 5.3% | 7.8 ± 1.2% | 28.5 ± 4.3% | 88.2 ± 13.2% | weight ratio lipopeptide:DNA influencing electrophoretic mobility ([7]; circular plasmid): 1.0; weight ratio lipopeptide:DNA influencing electrophoretic mobility ([7]; linearized plasmid): 10.0; morphological effect on bacterial cells (TEM) [8]: damaging cellular envelopes; MIC [5]: 34.3 µg/mL (≈ 34.3 µM); MIC [9, 15]: 10.0 µg/mL (≈ 10 µM); MIC [4]: 28.8 µg/mL (≈ 28.8 µM) |
| CCCCCCCCCCCCCCCC(=O)N[C@@H](CC(C)C)C(=O)N[C@H](C(=O)N[C@@H](CCCCN)C(=O)NCC(=O)N[C@@H](C)C(=O)N[C@@H](CCCNC(=N)N)C(N)=O)C(C)C [SHP-2.2, PAL-LVKGAR-NH2] (Palmitoyl-LVKGAR-NH2) | – | N / > 100.0 µg/mL | N / > 100.0 µg/mL | N / > 100.0 µg/mL | N / > 100.0 µg/mL | 7.0 µg/mL (≈ 7.95 µM) | 10.0 µg/mL (≈ 11.4 µM) | N / > 100.0 µg/mL | 14.9 µg/mL (≈ 16.9 µM) | 25.0 µg/mL (≈ 28.4 µM) | N / > 100.0 µg/mL | N / > 100.0 µg/mL | 4.3 ± 0.6% | 11.4 ± 1.7% | 11.1 ± 1.7% | 19.3 ± 2.9% | 28.6 ± 4.3% | % inhibition ([13]; c 200 µg/mL): 18.5 ± 2.8% |
| CCCCCCCCCCCCCCCC(=O)NCC(=O)N[C@H](C(=O)N[C@@H](CC(C)C)C(=O)N[C@@H](CCCCN)C(=O)N[C@@H](CCCNC(=N)N)C(=O)N[C@@H](C)C(N)=O)C(C)C [SHP-3.2, PAL-GVLKRA-NH2] (Palmitoyl-GVLKRA-NH2) | – | N / > 100.0 µg/mL | 50.0 µg/mL (≈ 56.8 µM) | 100.0 µg/mL (≈ 114 µM) | N / > 100.0 µg/mL | 5.8 µg/mL (≈ 6.59 µM) | 10.0 µg/mL (≈ 11.4 µM) | 30.0 µg/mL (≈ 34.1 µM) | 6.8 µg/mL (≈ 7.73 µM) | 12.5 µg/mL (≈ 14.2 µM) | N / > 100.0 µg/mL | 100.0 µg/mL (≈ 114 µM) | 17.0 ± 2.6% | 20.7 ± 3.1% | 4.1 ± 0.6% | 29.6 ± 4.4% | 0.0 ± 0.3% | influence on electrophoretic mobility of plasmid DNA ([7]; circular or linearized forms, tested ratios): did not exhibit any influence; MIC [5]: 41.1 µg/mL (≈ 46.7 µM); MIC ([6]; 24 h): 83.6 µg/mL (≈ 95 µM); MIC [4]: 8.6 µg/mL (≈ 9.77 µM); MIC ([12]; DBM 3001, 24 h): 68.7 µg/mL (≈ 78 µM); % inhibition ([13]; c 200 µg/mL): 23.2 ± 3.5% |
